In assay [1] the target is T1, Phosphodiesterase 3 (Homo sapiens, UniProt Q14432+Q13370). Kind of assay: Inhibition of guinea pig ventricular Phosphodiesterase 3 (PDE 3). The format is protein assay, Cavia porcellus. The conditions noted are these: target entry is the homologue from another species.
Assay [2] deals with T2, Phosphodiesterase 4 (Homo sapiens, UniProt P27815+Q08499+Q07343+Q08493). The assay can be described thus: Inhibitory effect in cAMP-specific Phosphodiesterase 4 (PDE 4) isolated from guinea pig ventricular tissue. The format is protein assay, Cavia porcellus. The note with it: target entry is the homologue from another species.
Assay [3] has as its target T1, Phosphodiesterase 3. The assay can be described thus: Inhibition of guinea pig ventricular Phosphodiesterase 3 (PDE 3) at 200 uM. The note with it: Cavia porcellus, target entry is the homologue from another species. Type of assay: protein assay.
Assay [4] has as its target T2, Phosphodiesterase 4. Kind of assay: Inhibition of guinea pig ventricular Phosphodiesterase 4 (PDE 4) at 200 uM. Type of assay: protein assay. The note with it: Cavia porcellus, target entry is the homologue from another species.
Assay [5] deals with T1, Phosphodiesterase 3. The assay can be described thus: Inhibitory effect in cGMP-inhibited Phosphodiesterase 3 (PDE 3) isolated from guinea pig ventricular tissue. Type of assay: protein assay, Cavia porcellus. The note with it: target entry is the homologue from another species.

What is called IC50 is the concentration needed to halve the response being measured. Read a low IC50 as inhibition by little substance. For `CCN(Cc1ccc(-c2ccccc2-n2ncnn2)cc1)c1nc2nc3ccccc3n2s1`, the IC50 is 125 µM in assay [1] and 74 µM in assay [2].
The inhibition is the change of the read-out against control, counted positive when it falls. High values mean strong suppression, low ones little suppression. In the case of `CCCCN(Cc1ccccc1-n1ncnn1)c1nc2nc3ccccc3n2s1`, the results for the inhibition in assay [3] and in assay [4] were 32% and 44%, respectively.
With `CCCc1nc(SCc2ccc(-c3ccccc3-c3nn[nH]n3)cc2)c2cc(C)cc(C)c2n1`, the IC50 in assay [5] came out at 11 µM; in assay [2], 8.6 µM.
`CCN(Cc1ccccc1-c1ccccc1)c1nc2nc3ccccc3n2s1` registered an inhibition in assay [3] of 41%. Besides, in assay [2], the IC50 was found to be 48 µM.
Take `CCCCN(Cc1ccc(-c2ccccc2-n2ncnn2)cc1)c1nc2nc3ccccc3n2s1`: the inhibition in assay [3] came to 50%; in assay [4], 48%.
With `CCCCc1nc(Cl)c(CO)n1Cc1ccc(-c2ccccc2-c2nnn[nH]2)cc1` [LOSARTAN], the IC50 in assay [1] came to 13 µM.
Turning to `CC(C)c1nc(SCc2ccc(-c3ccccc3-c3nn[nH]n3)cc2)c2ccccc2n1`, the IC50 is 2.4 µM in assay [5] and 3.8 µM in assay [2].
With `CCc1nc(OCc2ccc(-c3ccccc3-c3nn[nH]n3)cc2)c2ccccc2n1`, the results for the IC50 in assay [5] and in assay [2] were 5.8 µM and 14 µM, respectively.
`CCCCN(Cc1ccccc1-c1ccccc1)c1nc2nc3ccccc3n2s1` yielded an inhibition in assay [3] of 31%. In assay [2], this compound registered an IC50 of 30 µM.
Regarding `CCCCc1nc(SCc2ccc(-c3ccccc3-c3nn[nH]n3)cc2)c2ccccc2n1`, the concentration for half-maximal inhibition (IC50) in assay [5] was 8 µM; in assay [2], 2.9 µM.
Regarding `CCc1nc(SCc2ccc(-c3ccccc3-c3nn[nH]n3)cc2)c2ccccc2n1`, the figures for the IC50 in assay [5] and in assay [2] were 7 µM and 3.3 µM, respectively.
In assay [3], `CCN(Cc1ccccc1)c1nc2nc3ccccc3n2s1` registered an inhibition of 12%. In assay [2], the IC50 stood at 32 µM.
Turning to `CCc1nc(NCc2ccc(-c3ccccc3-c3nn[nH]n3)cc2)c2ccccc2n1`, the IC50 in assay [5] came to 24 µM; in assay [2] it was 21 µM.
Regarding `CCCCN(Cc1ccccc1)c1nc2nc3ccccc3n2s1`, the inhibition in assay [3] is 0%. For the same compound, the IC50 in assay [2] turned out to be 90 µM.
Turning to `CCCc1nc(SCc2ccc(-c3ccccc3-c3nn[nH]n3)cc2)c2cc(C)ccc2n1`, the IC50 in assay [5] was 2.4 µM; in assay [2] it was 3.8 µM.
The matching figures for `Cc1nc(SCc2ccc(-c3ccccc3-c3nn[nH]n3)cc2)c2ccccc2n1`: 4.8 µM and 15 µM.
The matching figures for `CCCCc1nc(NCc2ccc(-c3ccccc3-c3nn[nH]n3)cc2)c2ccccc2n1`: 16 µM and 7.6 µM.
Taken in the same sequence, the figures for `CCCc1nc(SCc2ccc(-c3ccccc3-c3nn[nH]n3)cc2)c2ccccc2n1` were 6.8 µM and 3.8 µM.
Consider `CCN(Cc1ccccc1-n1ncnn1)c1nc2nc3ccccc3n2s1`, for which, in assay [3], the inhibition turned out to be 15%. This compound yielded a concentration for half-maximal inhibition (IC50) in assay [2] of 107 µM.
Taken in the same sequence, the figures for `CCCCN(Cc1ccccc1-c1ccccc1)c1nc2c3c(ccc2s1)CCCC3` were 15% and 42 µM.
With `CCCCc1nc(OCc2ccc(-c3ccccc3-c3nn[nH]n3)cc2)c2ccccc2n1`, the values for the IC50 in assay [5] and in assay [2] were 5.4 µM and 7.9 µM, respectively.

Source of the values: ChEMBL document CHEMBL1130766, “Phosphodiesterase inhibitory properties of losartan. Design and synthesis of new lead compounds” (Bioorg Med Chem Lett, 1998).
